One test concerns the target T1, human CSNK1D (Homo sapiens, UniProt P48730).
T1 construct: expressed in transfected cells
Nature of the test: Whole Cell nBRET CSNK1D Binding Assay. Particulars: living CHO cells stably expressing human CSNK1D tagged with nanoluciferase; NanoBret tracer 130 nM; 2 hours at 37 C.

Test [1] addresses T2, human recombinant GST cleaved CSNK1D (Homo sapiens, UniProt P48730).
T2 construct: GST (cleaved yes); purchased University of Dundee clone DU 19064
Nature of the test: Purified Enzyme Assay (ADP-Glo CSNK1D Kinase Assay). In kind it is biochemical. Particulars: 2 nM CSNK1D; peptide substrate 150 μM; ATP 20 μM; 45 minutes at room temperature. The gist of the method: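 GST-cleaved human recombinant CSNK1D phosphorylates peptide PLSRTL-pS-VASLPGL with ATP; compounds added in dose-response, 45 min at room temperature. ADP formed measured by ADP-Glo luminescence and converted to percent activity.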
Background: ADP-Glo first removes unused ATP, then detects ADP through luciferase.

T2 sequence (P48730 whole entry): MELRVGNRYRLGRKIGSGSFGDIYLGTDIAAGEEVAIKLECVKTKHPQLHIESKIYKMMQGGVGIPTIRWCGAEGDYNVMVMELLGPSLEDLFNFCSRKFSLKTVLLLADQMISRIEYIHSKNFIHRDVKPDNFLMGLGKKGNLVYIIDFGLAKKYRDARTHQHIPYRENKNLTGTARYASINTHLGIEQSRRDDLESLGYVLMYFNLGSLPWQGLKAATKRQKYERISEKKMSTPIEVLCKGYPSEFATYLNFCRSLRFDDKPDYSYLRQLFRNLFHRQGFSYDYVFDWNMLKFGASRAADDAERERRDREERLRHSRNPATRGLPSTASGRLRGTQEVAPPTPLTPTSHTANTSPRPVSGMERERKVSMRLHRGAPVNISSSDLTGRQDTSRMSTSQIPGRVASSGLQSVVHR
T1 sequence (P48730 whole entry): as above

By IC50 is commonly meant the concentration at which inhibition is half-maximal. Consider `Cc1cc(-c2c(-c3ccc(F)cn3)nn3c2OC(C)CC3C)c2cn[nH]c2n1` (single isomer, unassigned) [Example 207, (5*R,7*S)-2-(5-Fluoro-2-pyridyl)-5,7-dimethyl-3-(6-methyl-H-pyrazolo[3,4-b]pyridin-4-yl)-6,7-dihydro-5H-pyrazolo[5,1-b][1,3]oxazine], for which the 50% inhibitory concentration (IC50) on human CSNK1D worked out at 1770 nM; in test [1], 51 nM.
On the same counts, the results for `c1cc(-c2c(-c3cscn3)nn3c2CCCC3)c2cn[nH]c2n1` [Example 31, 4-(3-(1H-Pyrazolo[3,4-b]pyridin-4-yl)-4,5,6,7-tetrahydropyrazolo[1,5-a]pyridin-2-yl)thiazole] are 995 nM and 65 nM.
`CC1COc2c(-c3ccnc4[nH]ncc34)c(-c3ccc(F)cc3)nn2C1` (centres unmarked) [Example 191, (R S)-2-(4-Fluorophenyl)-6-methyl-3-(1H-pyrazolo[3,4-b]pyridin-4-yl)-6,7-dihydro-5H-pyrazolo[5,1-b][1,3]oxazine]: the values for the IC50 (at human CSNK1D; in test [1]) were 5 nM and less than 0.5 nM, respectively.
In the case of `CC1(C)Cn2nc(-c3cscn3)c(-c3ccnc4[nH]ncc34)c2CO1` [Example 124, 6,6-Dimethyl-3-(1H-pyrazolo[3,4-b]pyridin-4-yl)-2-(thiazol-4-yl)-6,7-dihydro-4H-pyrazolo[5,1-c][1,4]oxazine], the IC50 on human CSNK1D stood at 343 nM; in test [1] it was 17 nM.
On the same counts, the results for `COCC1(F)CCc2c(-c3ccnc4[nH]ncc34)c(-c3ccc(F)cn3)nn2C1` (single isomer, unassigned) [Example 301, (*R)-4-[6-Fluoro-2-(5-fluoro-2-pyridyl)-6-(methoxymethyl)-5,7-dihydro-4H-pyrazolo[1,5-a]pyridin-3-yl]-1H-pyrazolo[3,4-b]pyridine] are 110 nM and 4 nM.
As to `Fc1ccc(-c2nn3c(c2-c2ccn4nccc4c2)C[C@H](F)C3)cc1` [Example 226, 5-[(5S)-5-Fluoro-2-(4-fluorophenyl)-5,6-dihydro-4H-pyrrolo[1,2-b]pyrazol-3-yl]pyrazolo[1,5-a]pyridine], the IC50 was 48 nM at human CSNK1D and 10 nM in test [1].
With `CCn1ncc2cc(-c3c(-c4ccc(F)cn4)nn4c3OCC(C)(C)C4)cnc21` [Example 452, 3-(1-Ethyl-1H-pyrazolo[3,4-b]pyridin-5-yl)-2-(5-fluoropyridin-2-yl)-6,6-dimethyl-6,7-dihydro-5H-pyrazolo[5,1-b][1,3]oxazine], the IC50 at human CSNK1D came to 570 nM; in test [1], 44 nM.
Turning to `Cc1cc(-c2c(-c3ncc(F)cc3F)nn3c2OCCC3)c2cn[nH]c2n1` [Example 189, 2-(3,5-Difluoro-2-pyridyl)-3-(6-methyl-1H-pyrazolo[3,4-b]pyridin-4-yl)-6,7-dihydro-5H-pyrazolo[5,1-b][1,3]oxazine], the concentration for half-maximal inhibition (IC50) on human CSNK1D was determined as 320 nM; in test [1] it was 10 nM.
On to `CC1COc2c(-c3ccnc4ccsc34)c(-c3ccc(F)cn3)nn2C1` (centres unmarked) [Example 195, 2-(5-Fluoropyridin-2-yl)-6-methyl-3-(thieno[3,2-b]pyridin-7-yl)-6,7-dihydro-5H-pyrazolo[5,1-b][1,3]oxazine], for which the IC50 at human CSNK1D came to 218 nM; in test [1], 21 nM.
The like results for `COCC1(F)CCc2c(-c3cc(C)nc4[nH]ccc34)c(-c3ccc(F)cn3)nn2C1` (single isomer, unassigned) [Example 299, (*R)-4-[6-Fluoro-2-(5-fluoro-2-pyridyl)-6-(methoxymethyl)-5,7-dihydro-4H-pyrazolo[1,5-a]pyridin-3-yl]-6-methyl-1H-pyrrolo[2,3-b]pyridine] were, in that order, 303 nM and 20 nM.
The like results for `Cc1nc(-c2c(-c3ccc(F)cc3)nn3c2COC(C(F)(F)F)C3)c2cn[nH]c2n1` (single isomer, unassigned) [Example 376, (*R)-2-(4-Fluorophenyl)-3-(6-methyl-1H-pyrazolo[3,4-d]pyrimidin-4-yl)-6-(trifluoromethyl)-6,7-dihydro-4H-pyrazolo[5,1-c][1,4]oxazine] were, in that order, 74 nM and 4 nM.
Turning to `Cc1nc2[nH]nc(C)c2c(-c2c(-c3ccc(F)cn3)nn3c2CC[C@@]2(C3)CC2(F)F)c1F` (single isomer, unassigned) [Example 333, (*S)-2,2-Difluoro-3′-(5-fluoro-3,6-dimethyl-1H-pyrazolo[3,4-b]pyridin-4-yl)-2′-(5-fluoropyridin-2-yl)-4′,5′-dihydro-7′H-spiro[cyclopropane-1,6′-pyrazolo[1,5-a]pyridine]], the IC50 was more than 10000 nM at human CSNK1D and 4960 nM in test [1].
Regarding `Fc1ccc(-c2nn3c(c2-c2ccnc4[nH]ncc24)OCCCC3)nc1` [Example 218, 2-(5-Fluoro-2-pyridyl)-3-(1H-pyrazolo[3,4-b]pyridin-4-yl)-5,6,7,8-tetrahydropyrazolo[5,1-b][1,3]oxazepane], the IC50 at human CSNK1D stood at 239 nM; in test [1] it was 12 nM.
With `Fc1ccc(-c2nn3c(c2-c2ccnc4[nH]ncc24)OCC2(C3)CC2(F)F)nc1` (single isomer, unassigned) [Example 478, (*S)-2,2-Difluoro-2′-(5-fluoropyridin-2-yl)-3′-1H-pyrazolo[3,4-b]pyridin-4-yl)-5′H,7′H-spiro[cyclopropane-1,6′-pyrazolo[5,1-b][1,3]oxazine]], the IC50 on human CSNK1D is 4 nM; in test [1], 1 nM.
On the same counts, the results for `CC1(C)Cn2nc(-c3ccc(F)cn3)c(-c3ccn4nccc4n3)c2CO1` [Example 387, 2-(5-Fluoropyridin-2-yl)-6,6-dimethyl-3-(pyrazolo[1,5-a]pyrimidin-5-yl)-6,7-dihydro-4H-pyrazolo[5,1-c][1,4]oxazine] are 760 nM and 30 nM.
Take `Fc1cc(-c2nn3c(c2-c2ccnc4[nH]ncc24)COCC3)ccc1Cl` [Example 72, 2-(4-Chloro-3-fluoro-phenyl)-3-(1H-pyrazolo[3,4-b]pyridin-4-yl)-6,7-dihydro-4H-pyrazolo[5,1-c][1,4]oxazine]: the IC50 worked out at 482 nM at human CSNK1D and 54 nM in test [1].
For the compound `Fc1ccc(-c2nn3c(c2-c2ccnc4[nH]ncc24)CCC2C3C2(F)F)nc1` (racemic) [Example 58, (Racemic) 6,6-Difluoro-2-(5-fluoropyridin-2-yl)-3-(1H-pyrazolo[3,4-b]pyridin-4-yl)-5,5a,6,6a-tetrahydro-4H-cyclopropa[e]pyrazolo[1,5-a]pyridine], the IC50 came to 65 nM on human CSNK1D and 5 nM in test [1].
`Fc1ccc(-c2nn3c(c2-c2ccnc4[nH]ncc24)C[C@@H]2C[C@@H]23)nc1` [Example 26, (4aS,5aS)-2-(5-Fluoropyridin-2-yl)-3-(1H-pyrazolo[3,4-b]pyridin-4-yl)-4,4a,5,5a-tetrahydrocyclopropa[4,5]pyrrolo[1,2-b]pyrazole]: the IC50 on human CSNK1D is 32 nM; in test [1], 4 nM.
Turning to `CC1(C)Cn2nc(-c3ccc(F)cn3)c(-c3cc(C(F)F)nc4[nH]ncc34)c2CO1` [Example 390, 3-[6-(Difluoromethyl)-1H-pyrazolo[3,4-b]pyridin-4-yl]-2-(5-fluoro-2-pyridyl)-6,6-dimethyl-4,7-dihydropyrazolo[5,1-c][1,4]oxazine], the IC50 on human CSNK1D came out at 141 nM; in test [1], 6 nM.
Take `CC(C)[C@@H]1Cn2nc(-c3ccc(F)cn3)c(-c3ccnc4[nH]ncc34)c2CO1` (single isomer, unassigned) [Example 97, (*R)-2-(5-Fluoropyridin-2-yl)-6-isopropyl-3-(1H-pyrazolo[3,4-b]pyridin-4-yl)-6,7-dihydro-4H-pyrazolo[5,1-c][1,4]oxazine]: the IC50 on human CSNK1D was determined as 5050 nM; in test [1], 63 nM.
Turning to `C[C@@H]1C[C@H](C)Oc2c(-c3ccnc4[nH]ncc34)c(-c3ccc(F)cn3)nn21` (single isomer, unassigned) [Example 202, (5*S,7*R)-2-(5-Fluoro-2-pyridyl)-5,7-dimethyl-3-(1H-pyrazolo[3,4-b]pyridin-4-yl)-6,7-dihydro-5H-pyrazolo[5,1-b][1,3]oxazine], the IC50 on human CSNK1D worked out at 198 nM; in test [1], 10 nM.
As to `Cc1cc(-c2c(-c3ccc(F)cn3)nn3c2C[C@@]2(C3)CC2(F)F)c2c(Cl)n[nH]c2n1` (single isomer, unassigned) [Example 262, (*S)-3′-(3-Chloro-6-methyl-1H-pyrazolo[3,4-b]pyridin-4-yl)-2,2-difluoro-2′-(5-fluoropyridin-2-yl)-4′H,6′H-spiro[cyclopropane-1,5′-pyrrolo[1,2-b]pyrazole]], the figures for the half-maximal inhibitory concentration (IC50) (on human CSNK1D; in test [1]) were 15 nM and 5 nM, respectively.
For the compound `C[C@@H]1OCc2c(-c3ccnc4[nH]ncc34)c(-c3ccc(F)cc3)nn2[C@@H]1C` (single isomer, unassigned) [Example 113, (6*S,7*R)-2-(4-Fluorophenyl)-6,7-dimethyl-3-(1H-pyrazolo[3,4-b]pyridin-4-yl)-6,7-dihydro-4H-pyrazolo[5,1-c][1,4]oxazine], the IC50 at human CSNK1D amounted to 113 nM; in test [1] it was 10 nM.
On the same counts, the results for `CC1(CF)CCc2c(-c3cc(F)ncc3F)c(-c3ccc(F)cn3)nn2C1` (racemic) [Example 288, 3-(2,5-Difluoro-4-pyridyl)-6-(fluoromethyl)-2-(5-fluoro-2-pyridyl)-6-methyl-5,7-dihydro-4H-pyrazolo[1,5-a]pyridine] are 4100 nM and 238 nM.
The like results for `Fc1ccc(-c2nn3c(c2-c2c(F)cnc4[nH]ncc24)CC2(C3)CC2(F)F)nc1` (single isomer, unassigned) [Example 259, (*R)-1′.1′-Difluoro-3-(5-fluoro-1H-pyrazolo[3,4-b]pyridin-4-yl)-2-(5-fluoro-2-pyridyl)spiro[4,6-dihydropyrrolo[1,2-b]pyrazole-5,2′-cyclopropane]] were, in that order, 1920 nM and 79 nM.
